This assay concerns the target T1, human LPAR1 (Homo sapiens, UniProt Q92633).
T1 construct: host or cells: TangoEDG2-bla U2OS cells
The experiment in a line: Arrestin assay (Arrestin Reporter EDG2-bla U2OS), inhibition of LPA-stimulated signal. It counts as cell-based. The following applies: TangoEDG2-bla U2OS cells expressing human LPAR1; 0.25 μM LPA; read-out: Arrestin Reporter EDG2-bla U2OS Human Merged IC50. In outline:
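TangoEDG2-bla U2OS cells (1×10^4/well, plated 18-20 h) were preincubated 1 h at 37 °C with compound (12-point, 3-fold, 10 μM to 0.00006 μM), then stimulated 3 h with 0.25 μM LPA final. LiveBLAzer FRET B/G 460/530 nm emission ratio gave % inhibition; IC50 from 4-parameter variable-slope fit.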

Molecules are shown by their SMILES. pIC50: −log10 of the molar value.

T1 sequence (Q92633 whole entry): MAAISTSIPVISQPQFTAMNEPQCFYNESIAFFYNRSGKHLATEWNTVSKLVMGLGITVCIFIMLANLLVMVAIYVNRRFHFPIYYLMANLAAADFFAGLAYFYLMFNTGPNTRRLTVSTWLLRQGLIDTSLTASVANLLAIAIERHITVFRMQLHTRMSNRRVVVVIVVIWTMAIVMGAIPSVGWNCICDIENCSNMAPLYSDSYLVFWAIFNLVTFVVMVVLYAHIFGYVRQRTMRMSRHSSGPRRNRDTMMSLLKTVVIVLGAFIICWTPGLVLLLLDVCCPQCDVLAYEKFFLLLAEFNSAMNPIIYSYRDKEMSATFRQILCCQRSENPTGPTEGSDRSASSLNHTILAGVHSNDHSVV

By pIC50 is commonly meant the IC50 on a negative log10 scale, so that one unit is a factor of ten. On to `CC(C)c1ccnn1C1(C(=O)Nc2ccc(Cl)cc2OC(F)F)CCN(CC2(C(=O)O)CCCC2)CC1` [Compound 12, 1-[[4-[[4-chloro-2-(difluoromethoxy)phenyl]carbamoyl]-4-(5-isopropylpyrazol-1-yl)-1-piperidyl]methyl] cyclopentanecarboxylic acid], for which the pIC50 is 7.94.
With `CCC(CC)(CN1CCC(C(=O)Nc2ccc(Cl)cc2OC(F)F)(n2nccc2C(C)C)CC1)C(=O)O` [Compound 67], the negative-log IC50 (pIC50) was 7.68.
Then `CC(C)c1ccnn1C1(C(=O)Nc2ccc(Cl)cc2OC(F)F)CCN(CC2(C(=O)O)C[C@@H](C)O[C@@H](C)C2)CC1` (stereo partly drawn) [Compound 180, (2R,6S)-4-[[4-[[4-chloro-2-(difluoromethoxy)phenyl]carbamoyl]-4-(5-isopropylpyrazol-1-yl)-1-piperidyl]methyl]-2,6-dimethyl-tetrahydropyran-4-carboxylic acid], with 7.31; and `COC(=O)N[C@]1(C(=O)O)C[C@@H](N2CCC(C(=O)Nc3ccc(Cl)cc3OC(F)F)(n3nccc3C(C)C)CC2)C1` [Compound 131], with 6.87.
With `CC(C)c1c(F)cnn1C1(C(=O)Nc2ccc(Cl)cc2OC(F)F)CCN(C[C@H](C(=O)O)C2CCOCC2)CC1` [Compound 141, (28)-3-[4-[[4-chloro-2-(difluoromethoxy)phenyl]carbamoyl]-4-(4-fluoro-5-isopropyl-pyrazol-1-yl)-1-piperidyl]-2-tetrahydropyran-4-yl-propanoic acid], the pIC50 was 7.59.
Take `CC(C)c1ccnn1C1(C(=O)Nc2ccc(Cl)cc2OC(F)F)CCN(C2CC(C(=O)O)C2)CC1` (stereo not drawn) [Compound 46, 3-[4-[[4-chloro-2-(difluoromethoxy)phenyl]carbamoyl]-4-(5-isopropylpyrazol-1-yl)-1-piperidyl] cyclobutanecarboxylic acid]: the pIC50 is 7.20.
For `CO[C@H]1C[C@@H]([C@@H](CN2CCC(C(=O)Nc3ccc(Cl)cc3OC(F)F)(n3nccc3C(C)C)CC2)C(=O)O)C1` [Compound 227, (2S)-3-[4-[[4-chloro-2-(difluoromethoxy)phenyl]carbamoyl]-4-(5-isopropylpyrazol-1-yl)-1-piperidyl]-2-((1s,3R)-3-methoxycyclobutyl) propanoic acid], the pIC50 was 7.42.
Turning to `CC(C)c1ccnn1C1(C(=O)Nc2ccc(Cl)cc2OC(F)F)CCN(CC(C(=O)O)c2cccnc2)CC1` (stereo not drawn) [Compound 17, 3-[4-[[4-chloro-2-(difluoromethoxy)phenyl]carbamoyl]-4-(5-isopropylpyrazol-1-yl)-1-piperidyl]-2-(3-pyridyl)propanoic acid], the pIC50 was 7.84.
As for `COc1cnn([C@@H](CN2CCC(C(=O)Nc3ccc(Cl)cc3OC(F)F)(n3nccc3C(C)C)CC2)C(=O)O)c1` [Compound 225, (2S)-3-[4-[[4-chloro-2-(difluoromethoxy)phenyl]carbamoyl]-4-(5-isopropylpyrazol-1-yl)-1-piperidyl]-2-(4-methoxypyrazol-1-yl)propanoic acid], the figure is 7.51; as for `COC[C@H](CN1CCC(C(=O)Nc2ccc(Cl)cc2OC(F)F)(n2ncc3c2C(C)(C)OC3)CC1)C(=O)O` [Compound 208, (2S)-2-[[4-[[4-chloro-2-(difluoromethoxy)phenyl]carbamoyl]-4-(6,6-dimethyl-4H-furo[3,4-c]pyrazol-1-yl)-1-piperidyl]methyl]-3-methoxy-propanoic acid], 7.03.
For `CC(C)c1ccnn1C1(C(=O)Nc2ccc(Cl)cc2OC(F)F)CCN(CC(CCO)C(=O)O)CC1` (stereo not drawn) [Compound 133, 2-[[4-[[4-chloro-2-(difluoromethoxy)phenyl]carbamoyl]-4-(5-isopropylpyrazol-1-yl)-1-piperidyl]methyl]-4-hydroxy-butanoic acid], the negative logarithm of the IC50 (pIC50) is 7.13.
For the compound `CO[C@H]1CC[C@H]([C@@H](CN2CCC(C(=O)Nc3ccc(Cl)cc3OC(F)F)(n3nccc3C(C)C)CC2)C(=O)O)CC1` [Compound 187, (2S)-3-[4-[[4-chloro-2-(difluoromethoxy)phenyl]carbamoyl]-4-(5-isopropylpyrazol-1-yl)-1-piperidyl]-2-((1r,4S)-4-methoxycyclohexyl) propanoic acid], the negative logarithm of the IC50 (pIC50) is 7.12.
As for `CC(C)c1ccnn1C1(C(=O)Nc2ccc(Cl)cc2OC(F)F)CCN(C[C@@]2(C(=O)O)CCOC(C)(C)C2)CC1` [Compound 172, (4R)-4-[[4-[[4-chloro-2-(difluoromethoxy)phenyl]carbamoyl]-4-(5-isopropylpyrazol-1-yl)-1-piperidyl]methyl]-2,2-dimethyl-tetrahydropyran-4-carboxylic acid], the figure is 7.15.
Then `CC(C)c1ccnn1C1(C(=O)Nc2ccc(Cl)cc2OC(F)F)CCN(CC2(C(=O)O)CC3CCC2C3)CC1` (stereo not drawn) [Compound 70, 2-[[4-[[4-chloro-2-(difluoromethoxy)phenyl]carbamoyl]-4-(5-isopropylpyrazol-1-yl)-1-piperidyl]methyl]norbomane-2-carboxylic acid], with 7.94; and `CC(C)c1ccnn1C1(C(=O)Nc2ccc(Cl)cc2OC(F)F)CCN(C[C@H](CO)C(=O)O)CC1` [Compound 183, (2R)-2-[[4-[[4-chloro-2-(difluoromethoxy)phenyl]carbamoyl]-4-(5-isopropylpyrazol-1-yl)-1-piperidyl]methyl]-3-hydroxy-propanoic acid], with 7.40; and `CC(C)c1ccnn1C1(C(=O)Nc2ccc(Cl)cc2OC(F)F)CCN(C[C@@H](C(=O)O)N2C[C@H](C)O[C@@H](C)C2)CC1` [Compound 167, (2S)-3-[4-[[4-chloro-2-(difluoromethoxy)phenyl]carbamoyl]-4-(5-isopropylpyrazol-1-yl)-1-piperidyl]-2-[(2S,6S)-2,6-dimethylmorpholin-4-yl]propanoic acid], with 6.97.
As for `CCOC(=O)N1CCC(CN2CCC(C(=O)Nc3ccc(Cl)cc3OC(F)F)(n3ncc(OC)c3C(C)C)CC2)(C(=O)O)CC1` [Compound 99, 4-[[4-[[4-chloro-2-(difluoromethoxy)phenyl]carbamoyl]-4-(5-isopropyl-4-methoxy-pyrazol-1-yl)-1-piperidyl]methyl]-1-ethoxycarbonyl-piperidine-4-carboxylic acid], the figure is 7.49; as for `CC(C)c1c(F)cnn1C1(C(=O)Nc2ccc(Cl)cc2OC(F)F)CCN(CC2(C(=O)O)CCC(=O)CC2)CC1` [Compound 153, 1-[[4-[[4-chloro-2-(difluoromethoxy)phenyl]carbamoyl]-4-(4-fluoro-5-isopropyl-pyrazol-1-yl)-1-piperidyl]methyl]-4-oxo-cyclohexanecarboxylic acid], 7.52.
As to `COCC(CN1CCC(C(=O)Nc2ccc(Cl)cc2OC(F)F)(n2nccc2C(C)C)CC1)C(=O)O` (stereo not drawn) [Compound 105, 2-[[4-[[4-chloro-2-(difluoromethoxy)phenyl]carbamoyl]-4-(5-isopropylpyrazol-1-yl)-1-piperidyl]methyl]-3-methoxy-propanoic acid], the pIC50 is 7.57.
As for `CC(C)c1ccnn1C1(C(=O)Nc2ccc(Cl)cc2OC(F)F)CCN(CC2(C(=O)O)CCN(C(=O)C[C@@H]3CCOC3)CC2)CC1` [Compound 93, 4-[[4-[[4-chloro-2-(difluoromethoxy)phenyl]carbamoyl]-4-(5-isopropylpyrazol-1-yl)-1-piperidyl]methyl]-1-[2-[(3S)-tetrahydrofuran-3-yl]acetyl]piperidine-4-carboxylic acid], the figure is 6.27.
Then `CC(C)c1ccnn1C1(C(=O)Nc2ccc(Cl)cc2OC(F)F)CCN(CC(C(=O)O)C2CCOCC2)CC1` (stereo not drawn) [Compound 11, 3-[4-[[4-chloro-2-(difluoromethoxy)phenyl]carbamoyl]-4-(5-isopropylpyrazol-1-yl)-1-piperidyl]-2-tetrahydropyran-4-yl-propanoic acid], with 7.28; and `COCCC(CN1CCC(C(=O)Nc2ccc(Cl)cc2OC(F)F)(n2nccc2C(C)C)CC1)C(=O)O` (stereo not drawn) [Compound 142, 2-[[4-[[4-chloro-2-(difluoromethoxy)phenyl]carbamoyl]-4-(5-isopropylpyrazol-1-yl)-1-piperidyl]methyl]-4-methoxy-butanoic acid], with 7.42.
As to `CC(C)c1ccnn1C1(C(=O)Nc2ccc(Cl)cc2OC(F)F)CCN(CC2(CC(=O)O)CCOCC2)CC1` [Compound 51, 2-[4-[[4-[[4-chloro-2-(difluoromethoxy)phenyl]carbamoyl]-4-(5-isopropylpyrazol-1-yl)-1-piperidyl]methyl]tetrahydropyran-4-yl]acetic acid], the negative-log IC50 (pIC50) is 7.25.
Then `CC(C)c1ccnn1C1(C(=O)Nc2ccc(Cl)cc2OC(F)F)CCN([C@H]2C[C@@](C#N)(C(=O)O)C2)CC1` [Compound 112, (1s,3s)-3-[4-[[4-chloro-2-(difluoromethoxy)phenyl]carbamoyl]-4-(5-isopropylpyrazol-1-yl)-1-piperidyl]-1-cyano-cyclobutanecarboxylic acid], with 6.51; and `CC(C)c1c(F)cnn1C1(C(=O)Nc2ccc(Cl)cc2OC(F)F)CCN(C[C@]2(C(=O)O)CC[C@H](O)CC2)CC1` [Compound 161, (1r,4r)-1-[[4-[[4-chloro-2-(difluoromethoxy)phenyl]carbamoyl]-4-(4-fluoro-S-isopropyl-pyrazol-1-yl)-1-piperidyl]methyl]-4-hydroxy-cyclohexanecarboxylic acid], with 6.67.
As for `CC(C)c1ccnn1C1(C(=O)Nc2ccc(Cl)cc2OC(F)F)CCN(CC(CO)C(=O)O)CC1` (stereo not drawn) [Compound 120, 2-[[4-[[4-chloro-2-(difluoromethoxy)phenyl]carbamoyl]-4-(5-isopropylpyrazol-1-yl)-1-piperidyl]methyl]-3-hydroxy-propanoic acid], the pIC50 is 7.46.
As for `CO[C@H]1CC[C@@H]([C@H](CN2CCC(C(=O)Nc3ccc(Cl)cc3OC(F)F)(n3nccc3C(C)C)CC2)C(=O)O)CC1` (single isomer, unassigned) [Compound 184], the figure is 7.11.

Source of the values: US20260102383A1, “LPAR1 Inhibitors” (AbbVie Inc., priority 2024, published 2026).
